The values below are quoted from earlier work in patent US8187629B2, “Non-lamellar compositions of DOPE and P80” (Camurus AB, priority 2004, dated 2012).

The conditions of this series: room temperature; greater at physiological temperature.

Consider `CCCCCCCC/C=C\CCCCCCCC(=O)OCC(O)CO` (stereo not shown) [GMO, glycerol monooleate], for which the equilibrium water solubility result is listed as “at least 10^−7 M”.
